Measured values taken from the supplement of paper PMC12317010.
Structures can show the parent of a compound that is named as a salt.

Experiment: collision cross section in nitrogen (drift tube, single-field); higher = larger gas-phase ion size
[1] = ion type: [M+H], ion source: APCI, ion mode: Positive
[2] = ion type: [M+H], ion source: ESI, ion mode: Positive
[3] = ion type: [M+Na], ion source: ESI, ion mode: Positive
[4] = ion type: [M-H], ion source: ESI, ion mode: Negative
[5] = ion type: [M+], ion source: APCI, ion mode: Positive
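Note: chemical standards at 10 µM analysed by drift tube IMS-QTOF MS in about 3.95 torr nitrogen, mean of duplicate injections differing ≤1%, mass error below 10 ppm.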

| Structure (SMILES) | collision cross section in nitrogen [1] | collision cross section in nitrogen [2] | collision cross section in nitrogen [3] | collision cross section in nitrogen [4] | collision cross section in nitrogen [5] |
| --- | --- | --- | --- | --- | --- |
| CC(=O)c1ccc2c(c1)[C@H](NC(=O)c1ccc(F)cc1)[C@@H](O)C(C)(C)O2 [Carabersat] | 184.1 Å² | 183.9 Å² | 194.4 Å² | 186 Å² | – |
| CCOc1ccc(C(C)(C)COCc2cccc(Oc3ccccc3)c2)cc1 [Etofenprox] | – | – | 191 Å² | – | – |
| COc1ccc(OC(F)(F)F)cc1CN[C@H]1CCCN[C@H]1c1ccccc1 | 182.7 Å² | 183.3 Å² | 190.7 Å² | – | – |
| C=CCc1ccc(OC(=O)Cc2ccccc2)c(OC)c1 [Eugenyl phenylacetate] | – | – | 175.7 Å² | – | – |
| N#Cc1cc([N+](=O)[O-])ccc1N [2-Amino-5-nitrobenzonitrile] | – | – | – | 125.1 Å² | – |
| CCCCC(CC)COC(=O)c1ccc(C(=O)OCC(CC)CCCC)c(C(=O)OCC(CC)CCCC)c1 (stereo unspecified) [Tris(2-ethylhexyl) trimellitate] | – | 256.5 Å² | 264.6 Å² | – | – |
| CCCOC(=O)NCCCN(C)C [Propamocarb] | 142.9 Å² | 143.3 Å² | – | – | – |
| [O-][n+]1ccc(Cl)cc1 [4-Chloropyridine 1-oxide] | – | 121.6 Å² | – | 117.2 Å² | – |
| CCN(CCC#N)c1ccc(N=Nc2ccc([N+](=O)[O-])cc2)cc1 [C.I. Disperse Orange 25] | 188.5 Å² | 188.8 Å² | 189.8 Å² | – | – |
| O=C(O)c1cc2ccccc2cc1O [3-Hydroxy-2-naphthoic acid] | – | – | – | 135.6 Å² | – |
| O=C(O)c1c(Cl)ccc(Cl)c1Cl [2,3,6-Trichlorobenzoic acid] | – | – | – | 143.9 Å² | – |
| OC[C@@H](O)[C@H](O)[C@@H](O)[C@@H](O)CO [L-Glucitol] | – | – | 142.9 Å² | 132.8 Å² | – |
| C[C@]12CCC(=O)C=C1CC[C@@H]1[C@@H]2CC[C@@]2(C)[C@H]1CC[C@]2(C)O [17-Methyltestosterone] | – | 177.6 Å² | – | – | – |
| COC(=O)N(C(=O)N1CO[C@@]2(C(=O)OC)Cc3cc(Cl)ccc3C2=N1)c1ccc(OC(F)(F)F)cc1 [Indoxacarb] | 206.6 Å² | 205.7 Å² | 220.4 Å² | – | – |
| CC(C)(C)c1ccc(O)c(C(C)(C)C)c1 [2,4-Di-tert-butylphenol] | – | – | – | 155.1 Å² | – |
| COC(=O)c1c(C(F)F)nc(C(F)(F)F)c(C2=NCCS2)c1CC(C)C [Thiazopyr] | 183.2 Å² | 182.1 Å² | 192.1 Å² | 182.6 Å² | – |
| CCCCCCCCP(=O)(O)O [Octylphosphonic acid] | – | – | – | 149.9 Å² | – |
| COC(=O)Cc1ccccc1 [Methyl phenylacetate] | – | – | – | 131.4 Å² | – |
| O=C1N=CC(Cl)=CC1Cl (stereo unspecified) [3,5-Dichloro-2-pyridone] | – | – | – | 123.4 Å² | – |
| COc1cc(OC)nc(Sc2cccc(Cl)c2C(=O)O)n1 [Pyrithiobac] | 167.1 Å² | 166.7 Å² | 173.3 Å² | – | – |
| CCOc1ccc(N=Nc2ccc(C=Cc3ccc(N=Nc4ccc(OCC)cc4)cc3S(=O)(=O)O)c(S(=O)(=O)O)c2)cc1 [C.I. Direct Yellow 12] | – | 278.7 Å² | 286.9 Å² | 279.3 Å² | – |

| Structure (SMILES) | collision cross section in nitrogen [1] | collision cross section in nitrogen [2] | collision cross section in nitrogen [3] | collision cross section in nitrogen [4] | collision cross section in nitrogen [5] |
| --- | --- | --- | --- | --- | --- |
| O=c1[nH]c(=O)n([C@H]2CCCO2)cc1F [(R)-Tegafur] | – | – | – | 142.2 Å² | – |
| CN1Cc2c(N)cccc2C(c2ccccc2)C1 (stereo unspecified) [Nomifensine] | 155.8 Å² | 156.2 Å² | – | – | – |
| Nc1c(S(=O)(=O)O)cc(Br)c2c1C(=O)c1ccccc1C2=O | – | – | – | 169.4 Å² | – |
| CCC(C)(CC)C(=O)O [2-Ethyl-2-methylbutyric acid] | – | – | – | 130.5 Å² | – |
| CCCCCCCCC(=O)OCC(C)OC(=O)CCCCCCCC (stereo unspecified) [Propylene glycol dipelargonate] | – | – | 207.9 Å² | – | – |
| CC(C)=C[C@@H]1[C@@H](C(=O)OCc2coc(Cc3ccccc3)c2)C1(C)C [Bioresmethrin] | – | – | 188.3 Å² | – | – |
| CCOP(=S)(OCC)Oc1cc(C)nc(N(CC)CC)n1 [Pirimiphos-ethyl] | 176.3 Å² | 178.3 Å² | 181.5 Å² | – | – |
| Cc1nc(C)nc(N2C[C@@H](C)N(c3ccnc([C@@H](C)O)n3)[C@@H](C)C2)n1 | 191.2 Å² | 190.4 Å² | 183.4 Å² | 192.5 Å² | – |
| CC1(C)O[C@@H]2[C@@H](CO[C@@]3(COS(N)(=O)=O)OC(C)(C)O[C@@H]23)O1 [Topiramate] | – | – | 171.7 Å² | 174.7 Å² | – |
| O=C(NCNC(=O)NC1C(=O)NC(=O)N1CO)NC1C(=O)NC(=O)N1CO (stereo unspecified) [Imidazolidinyl urea] | – | – | 183.4 Å² | – | – |
| O=C(O)c1ccc2c(c1)nc(C(=O)NC1CCN(C3CC3)CC1)n2Cc1cc(-c2ccc(Cl)s2)on1 [AVE3247] | 228.1 Å² | 228.8 Å² | 242.2 Å² | 249.7 Å² | – |
| Oc1cccc(I)c1 [3-Iodophenol] | – | – | – | 122.5 Å² | – |
| N#Cc1ccc(C(c2ccc(C#N)cc2)n2cncn2)cc1 [4,4'-(1H-1,2,4-Triazol-1-ylmethylene)dibenzonitrile] | – | – | – | 166.5 Å² | – |
| c1cc(C(c2ccc(OCC3CO3)cc2)c2ccc(OCC3CO3)cc2)ccc1OCC1CO1 (stereo unspecified) | – | – | 199.3 Å² | – | – |
| C[C@H]1C[C@H]2[C@@H]3CCC4=CC(=O)C=C[C@]4(C)[C@@]3(F)[C@@H](O)C[C@]2(C)[C@@]1(O)C(=O)COP(=O)(O)O [Betamethasone 21-phosphate disodium] | – | – | 211.7 Å² | 199.8 Å² | – |
| O=P1(NCCCl)OCCCN1CCCl (stereo unspecified) [Ifosfamide] | 148.1 Å² | 148.8 Å² | 158.1 Å² | – | – |
| Oc1ccc(/C=C/c2cc(O)cc(O)c2)cc1 [Resveratrol] | – | – | – | 159.3 Å² | 155.1 Å² |
| CC(=O)c1cccnc1 [3-Acetylpyridine] | 123.6 Å² | – | – | – | – |
| CCOC(=O)CC(SP(=O)(OC)OC)C(=O)OCC (stereo unspecified) [Malaoxon] | – | – | 165.7 Å² | – | – |
| CCCCCCCCCCCCCCN(CCO)CCO [2,2'-(Tetradecylimino)diethanol] | 193 Å² | 193.2 Å² | 187.4 Å² | – | – |
| O=C(Nc1ccc2[nH]ccc2c1)c1cc2cc(F)ccc2n1Cc1cccc(F)c1 | 195.9 Å² | 195.7 Å² | 202.1 Å² | 193.8 Å² | – |

| Structure (SMILES) | collision cross section in nitrogen [1] | collision cross section in nitrogen [2] | collision cross section in nitrogen [3] | collision cross section in nitrogen [4] | collision cross section in nitrogen [5] |
| --- | --- | --- | --- | --- | --- |
| CCOP(=S)(OCC)OP(=S)(OCC)OCC [Sulfotep] | – | – | 172.2 Å² | – | – |
| CN(C)CCCN1c2ccccc2CCc2ccc(Cl)cc21 [Clomipramine hydrochloride] | 174.5 Å² | 174.5 Å² | – | – | – |
| CCCC1COC(Cn2cncn2)(c2ccc(Cl)cc2Cl)O1 (stereo unspecified) [Propiconazole] | 180.9 Å² | 179.8 Å² | – | – | – |
| CCCCCCCCCCCC(=O)OCC(O)CO (stereo unspecified) [1-Monolaurin] | – | – | 176.3 Å² | – | – |
| NC(=O)CN1CCCC1=O [2-Oxo-1-Pyrrolidineacetamide] | – | – | 136.8 Å² | – | – |
| O=S(=O)(O)C(F)(F)C(F)(F)C(F)(F)C(F)(F)C(F)(F)C(F)(F)C(F)(F)C(F)(F)F [Perfluorooctanesulfonic acid] | – | – | – | 168.7 Å² | – |
| CCCCCCC(CCCCCCCCCCC(=O)OCC(COC(C)=O)OC(C)=O)OC(C)=O (stereo unspecified) [Grinstad Soft-N-Safe] | – | – | 225.2 Å² | – | – |
| CCC(C)n1c(=O)[nH]c(C)c(Br)c1=O (stereo unspecified) [Bromacil] | – | – | – | 146.6 Å² | – |
| COc1cc(-c2ccc(N)c(OC)c2)ccc1N [C.I. Disperse Black 6] | 170.4 Å² | 170 Å² | – | – | 156.6 Å² |
| CCCCCCCCCc1ccc(OCCOCCO)cc1 [Igepal CO-210] | – | – | 191.3 Å² | – | – |
| C/C(=N\C#N)N(C)Cc1ccc(Cl)nc1 [Acetamiprid] | 155.1 Å² | 154.6 Å² | 157.7 Å² | 149.1 Å² | – |
| O=C(NO)C1(NS(=O)(=O)c2ccc(Oc3ccc(F)cc3)cc2)CCOCC1 | – | – | 206.8 Å² | 184.6 Å² | – |
| Oc1ccccc1I [2-Iodophenol] | – | – | – | 121.9 Å² | – |
| COC(=O)c1ccccc1CS(=O)(=O)NC(=O)Nc1nc(OC)cc(OC)n1 [Bensulfuron-methyl] | – | – | 197.8 Å² | – | – |
| C=CCOC(=O)c1ccccc1C(=O)OCC=C [Diallyl phthalate] | – | – | 159 Å² | – | – |
| Cc1ncc([N+](=O)[O-])n1C [1,2-Dimethyl-5-nitroimidazole] | – | 128 Å² | – | – | – |
| Cn1sccc1=O [2-Methyl-3(2H)-isothiazolone] | 117.1 Å² | 117.9 Å² | – | – | – |
| CC[C@@H]1C[C@H](N(Cc2cc(C(F)(F)F)cc(C(F)(F)F)c2)C(C)=O)c2cc(C(F)(F)F)ccc2N1C(=O)OC(C)C | – | – | 233.5 Å² | 231.1 Å² | – |
| COc1ccnc(CS(=O)c2nc3cc(OC(F)F)ccc3[nH]2)c1OC (stereo unspecified) [Pantoprazole sodium] | 185.5 Å² | 185.2 Å² | 185.5 Å² | 187 Å² | – |
| CCC(C)(NC(=O)c1cc(Cl)c(C)c(Cl)c1)C(=O)CCl (stereo unspecified) [Zoxamide] | – | 175.9 Å² | 188 Å² | – | – |
| O=C(Nc1cccc([N+](=O)[O-])c1)c1cc2ccccc2cc1O [3-Hydroxy-N-(3-nitrophenyl)naphthalene-2-carboxamide] | – | – | – | 170.2 Å² | – |
